Source: US12214006B2, “Traditional chinese medicine ointment for preventing and treating mastitis in dairy cows, and preparation method thereof” (Hunan University of Science and Engineering, priority 2022, dated 2025)
No end group written: not given here.

Legend:
Staphylococcus aureus = test: Filter paper bacteriostatic circle test, Staphylococcus aureus; assay type: cell-based; conditions: 20 μL of liquid medicine diluted by 10 times on 6.5 mm filter paper, 37° C., 24 hours
Experimental: (§1) In order to confirm the above conjecture, the application verifies the antibacterial effect of the traditional Chinese medicine concentrated solution prepared in each embodiment, and the method is as follows: • (1) taking Staphylococcus aureus and Escherichia coli grown on ordinary nutrient agar plates, dipping a small number of colonies with an inoculating loop, inoculating colonies into 5 mL of Mueller-Hinton (MH) broth, and performing shake culture at 37° C. for 6 hours at 200 r/min; taking bacterial liquid in logarithmic growth period and diluting the bacterial liquid with sterilized physiological saline until the bacterial content is 1-2×10^8 CFU/ml; diluting with sterilized physiological saline for 1000 times for later use; • (2) making a round filter paper with a diameter of 6.5 mm with a puncher, and dry-heat sterilizing it; first, evenly inoculating the bacterial liquid obtained in step (1) into a nutrient agar culture dish, then attaching the sterilized round filter paper to the surface of agar, transferring 20 μL of liquid medicine (diluted by 10 times) with a micropipette gun, dropping the liquid medicine in the center of the round filter paper, culturing it at 37° C. for 24 hours, and measuring the diameter of the bacteriostatic circle in which different liquid medicines are dropped.

Escherichia coli = test: Filter paper bacteriostatic circle test, Escherichia coli; assay type: cell-based; conditions: 20 μL of liquid medicine diluted by 10 times on 6.5 mm filter paper, 37° C., 24 hours
Experimental: as §1

dairy cows with mastitis = test: Therapeutic effect on dairy cows with mastitis (cure judged by sodium hydroxide curdled milk test); assay type: in vivo; conditions: ointments applied externally 2 g each time, twice a day for 5 days, control perfused with penicillin 100,000 IU, tested one day after stopping
From the text: Fifty dairy cows with mastitis detected by Shanghai Mastitis Test (SMT) are selected from a dairy farm in Hunan Province, of which 20 cows are externally coated with the traditional Chinese medicine ointment for preventing and treating mastitis in dairy cows prepared in embodiment 1 and 20 cows are externally applied with the traditional Chinese medicine ointment for preventing and treating mastitis in dairy cows prepared in comparative example 1, with the dosage of 2 g each time, twice a day for 5 days. The remaining 10 cows are perfused with penicillin 100,000 IU after all the milk is discharged from their breasts, as a control group.
Cure standard: one day after stopping the ointments, if curdled milk is negative by the sodium hydroxide test, the cows are judged to be cured.

Substance | Diameter of bacteriostatic circle of Staphylococcus aureus (mm) (Staphylococcus aureus) | Diameter of bacteriostatic circle of Escherichia coli (mm) (Escherichia coli) | Cure rate (%) (dairy cows with mastitis) | Cows (head) with curdled milk being negative by sodium hydroxide test (dairy cows with mastitis; 20, 20 and 10 cows per group)
FFRKVLKLIRKIWR [1 from Hunan University of Science and Engineering, preparation per CN111529683A] | 15.3 mm | 14.7 mm | – | –
penicillin [Control group] | – | – | 80% | 8 head
